Results reported in PubChem BioAssay AID2060510 (Molecular Pharmacology Branch, DTP, NCI, 2025).

Test system: 439559-082-T-J2-PDC spheroids viability
Experiment: Anticancer human tumor 439559-082-T-J2-PDC patient-derived colon adenocarcinoma cell line growth inhibition [GQUAD]
Details: for IC50: curve of first compound; for viability, T/C: stronger effect = lower value
Method in brief: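 Viability of tumor cells grown as complex spheroids with endothelial and stromal cells, exposed to drug combinations. Top concentration at or near clinical Cmax (else 10 microM), diluted in half-log increments.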

[1] = second compound 0.0316 µM, first compound 0.0316 µM
[2] = second compound 0.0316 µM, first compound 0.1 µM
[3] = second compound 0.0316 µM, first compound 0.316 µM
[4] = second compound 0.0316 µM, first compound 1 µM
[5] = second compound 0.0316 µM, first compound 3.16 µM
[6] = second compound 0.0316 µM, first compound 10 µM
[7] = second compound 0.1 µM, first compound 0.0316 µM
[8] = second compound 0.1 µM, first compound 0.1 µM
[9] = second compound 0.1 µM, first compound 0.316 µM
[10] = second compound 0.1 µM, first compound 1 µM
[11] = second compound 0.1 µM, first compound 3.16 µM
[12] = second compound 0.1 µM, first compound 10 µM
[13] = second compound 0.316 µM, first compound 0.0316 µM
[14] = second compound 0.316 µM, first compound 0.1 µM
[15] = second compound 0.316 µM, first compound 0.316 µM
[16] = second compound 0.316 µM, first compound 1 µM
[17] = second compound 0.316 µM, first compound 3.16 µM
[18] = second compound 0.316 µM, first compound 10 µM
[19] = second compound 1 µM, first compound 0.0316 µM
[20] = second compound 1 µM, first compound 0.1 µM
[21] = second compound 1 µM, first compound 0.316 µM
[22] = second compound 1 µM, first compound 1 µM
[23] = second compound 1 µM, first compound 3.16 µM
[24] = second compound 1 µM, first compound 10 µM
[25] = second compound 3.16 µM, first compound 0.0316 µM
[26] = second compound 3.16 µM, first compound 0.1 µM
[27] = second compound 3.16 µM, first compound 0.316 µM
[28] = second compound 3.16 µM, first compound 1 µM
[29] = second compound 3.16 µM, first compound 3.16 µM
[30] = second compound 3.16 µM, first compound 10 µM
[31] = second compound 10 µM, first compound 0.0316 µM
[32] = second compound 10 µM, first compound 0.1 µM
[33] = second compound 10 µM, first compound 0.316 µM
[34] = second compound 10 µM, first compound 1 µM
[35] = second compound 10 µM, first compound 3.16 µM
[36] = second compound 10 µM, first compound 10 µM
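Note: spheroids exposed to the agents for 7 days before readout.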
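Throughout, for viability, T/C: percent of luminescence signal in DMSO vehicle wells taken as 100% viability.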

In the case of `C#Cc1c(F)ccc2cc(O)cc(-c3ncc4c(N5CC6CCC(C5)N6)nc(OCC56CCCN5CC(F)C6)nc4c3F)c12` (stereo not drawn) + CN(C)c1ccc(Nc2c3ccc(NC(=O)CCN4CCCC4)cc3nc3cc(NC(=O)CCN4CCCC4)ccc23)cc1, the IC50 (second compound 0.0316 µM) is reported as over 10000 nM, the IC50 (second compound 0.1 µM) is reported as 3880 nM and the IC50 (second compound 0.316 µM) is reported as 6880 nM. For the same compound, the IC50 (second compound 1 µM) was over 10000 nM, the IC50 (second compound 3.16 µM) was 3740 nM and the IC50 (second compound 10 µM) was 3180 nM. The viability, T/C [1] was 83.6%, the viability, T/C [2] was 70.7% and the viability, T/C [3] was 66%. It also gave a viability, T/C [4] of 60.1%, a viability, T/C [5] of 56.1% and a viability, T/C [6] of 49.1%. It also gave a viability, T/C [7] of 94%, a viability, T/C [8] of 68.5% and a viability, T/C [9] of 73.1%. It also gave a viability, T/C [10] of 58.1%, a viability, T/C [11] of 54% and a viability, T/C [12] of 42.6%. For the same compound, the viability, T/C [13] was 79.3%, the viability, T/C [14] was 82.8% and the viability, T/C [15] was 62.2%. It also gave a viability, T/C [16] of 62%, a viability, T/C [17] of 55.5% and a viability, T/C [18] of 47.6%. It also gave a viability, T/C [19] of 91.5%, a viability, T/C [20] of 73.2% and a viability, T/C [21] of 64.6%. The viability, T/C [22] was 55.4%, the viability, T/C [23] was 61.8% and the viability, T/C [24] was 48.5%. For the same compound, the viability, T/C [25] was 81.9%, the viability, T/C [26] was 75.3% and the viability, T/C [27] was 69.1%. The viability, T/C [28] was 52.4%, the viability, T/C [29] was 55.2% and the viability, T/C [30] was 43.4%. The viability, T/C [31] was 84.4%, the viability, T/C [32] was 77.7% and the viability, T/C [33] was 62.5%. It also gave a viability, T/C [34] of 54.7%, a viability, T/C [35] of 56.4% and a viability, T/C [36] of 40.7%.
`CC[C@@]1(O)C(=O)OCc2c1cc1n(c2=O)Cc2cc3c(CN(C)C)c(O)ccc3nc2-1` + CN(C)c1ccc(Nc2c3ccc(NC(=O)CCN4CCCC4)cc3nc3cc(NC(=O)CCN4CCCC4)ccc23)cc1 was tested, and the IC50 (second compound 0.0316 µM) was over 316 nM, the IC50 (second compound 0.1 µM) was over 316 nM and the IC50 (second compound 0.316 µM) was over 316 nM. The IC50 (second compound 1 µM) was over 316 nM, the IC50 (second compound 3.16 µM) was over 316 nM and the IC50 (second compound 10 µM) was over 316 nM. The viability, T/C (second compound 0.0316 µM, first compound 0.000999 µM) was 102%, the viability, T/C (second compound 0.0316 µM, first compound 0.00316 µM) was 94.6% and the viability, T/C (second compound 0.0316 µM, first compound 0.00999 µM) was 104%. The viability, T/C [1] was 106%, the viability, T/C (second compound 0.0316 µM, first compound 0.0999 µM) was 90.2% and the viability, T/C [3] was 76%. The viability, T/C (second compound 0.1 µM, first compound 0.000999 µM) was 108%, the viability, T/C (second compound 0.1 µM, first compound 0.00316 µM) was 111% and the viability, T/C (second compound 0.1 µM, first compound 0.00999 µM) was 102%. It also gave a viability, T/C [7] of 85.7%, a viability, T/C (second compound 0.1 µM, first compound 0.0999 µM) of 91.8% and a viability, T/C [9] of 84%. The viability, T/C (second compound 0.316 µM, first compound 0.000999 µM) was 123%, the viability, T/C (second compound 0.316 µM, first compound 0.00316 µM) was 97.1% and the viability, T/C (second compound 0.316 µM, first compound 0.00999 µM) was 101%. For the same compound, the viability, T/C [13] was 100%, the viability, T/C (second compound 0.316 µM, first compound 0.0999 µM) was 87.9% and the viability, T/C [15] was 84.7%. The viability, T/C (second compound 1 µM, first compound 0.000999 µM) was 114%, the viability, T/C (second compound 1 µM, first compound 0.00316 µM) was 99% and the viability, T/C (second compound 1 µM, first compound 0.00999 µM) was 88.5%. For the same compound, the viability, T/C [19] was 101%, the viability, T/C (second compound 1 µM, first compound 0.0999 µM) was 91.1% and the viability, T/C [21] was 80.1%. It also gave a viability, T/C (second compound 3.16 µM, first compound 0.000999 µM) of 99.8%, a viability, T/C (second compound 3.16 µM, first compound 0.00316 µM) of 92.6% and a viability, T/C (second compound 3.16 µM, first compound 0.00999 µM) of 102%. The viability, T/C [25] was 93.2%, the viability, T/C (second compound 3.16 µM, first compound 0.0999 µM) was 103% and the viability, T/C [27] was 91.9%. The viability, T/C (second compound 10 µM, first compound 0.000999 µM) was 102%, the viability, T/C (second compound 10 µM, first compound 0.00316 µM) was 95% and the viability, T/C (second compound 10 µM, first compound 0.00999 µM) was 100%. It also gave a viability, T/C [31] of 107%, a viability, T/C (second compound 10 µM, first compound 0.0999 µM) of 85.8% and a viability, T/C [33] of 88.5%.
For `COc1cc(C2c3cc4c(cc3C(OC3OC5COC(C)OC5C(O)C3O)C3COC(=O)C23)OCO4)cc(OC)c1O` (stereo not drawn) + CN(C)c1ccc(Nc2c3ccc(NC(=O)CCN4CCCC4)cc3nc3cc(NC(=O)CCN4CCCC4)ccc23)cc1, the IC50 (second compound 0.0316 µM) was over 10000 nM, the IC50 (second compound 0.1 µM) was over 10000 nM and the IC50 (second compound 0.316 µM) was over 10000 nM. For the same compound, the IC50 (second compound 1 µM) was over 10000 nM, the IC50 (second compound 3.16 µM) was over 10000 nM and the IC50 (second compound 10 µM) was over 10000 nM. The viability, T/C [1] was 102%, the viability, T/C [2] was 93.9% and the viability, T/C [3] was 103%. For the same compound, the viability, T/C [4] was 85.6%, the viability, T/C [5] was 87.1% and the viability, T/C [6] was 63.8%. It also gave a viability, T/C [7] of 96.4%, a viability, T/C [8] of 91.8% and a viability, T/C [9] of 98.4%. For the same compound, the viability, T/C [10] was 94.7%, the viability, T/C [11] was 85% and the viability, T/C [12] was 61.9%. For the same compound, the viability, T/C [13] was 104%, the viability, T/C [14] was 104% and the viability, T/C [15] was 89.6%. It also gave a viability, T/C [16] of 89%, a viability, T/C [17] of 78.6% and a viability, T/C [18] of 59.9%. For the same compound, the viability, T/C [19] was 104%, the viability, T/C [20] was 94.2% and the viability, T/C [21] was 89.6%. For the same compound, the viability, T/C [22] was 90%, the viability, T/C [23] was 76.5% and the viability, T/C [24] was 57%. It also gave a viability, T/C [25] of 98%, a viability, T/C [26] of 87.1% and a viability, T/C [27] of 104%. For the same compound, the viability, T/C [28] was 92.5%, the viability, T/C [29] was 92.4% and the viability, T/C [30] was 63.3%. For the same compound, the viability, T/C [31] was 98.5%, the viability, T/C [32] was 93.3% and the viability, T/C [33] was 94.9%. For the same compound, the viability, T/C [34] was 91.3%, the viability, T/C [35] was 75.9% and the viability, T/C [36] was 54.5%.
`Nc1ccn(C2OC(CO)C(O)C2(F)F)c(=O)n1` (stereo not drawn) + CN(C)c1ccc(Nc2c3ccc(NC(=O)CCN4CCCC4)cc3nc3cc(NC(=O)CCN4CCCC4)ccc23)cc1 gave an IC50 (second compound 0.0316 µM) of 261 nM, an IC50 (second compound 0.1 µM) of 263 nM and an IC50 (second compound 0.316 µM) of 232 nM. The IC50 (second compound 1 µM) was 237 nM, the IC50 (second compound 3.16 µM) was 209 nM and the IC50 (second compound 10 µM) was 170 nM. The viability, T/C [1] was 78.2%, the viability, T/C [2] was 65.2% and the viability, T/C [3] was 46.7%. For the same compound, the viability, T/C [4] was 32.3%, the viability, T/C [5] was 25.2% and the viability, T/C [6] was 20.5%. It also gave a viability, T/C [7] of 85.3%, a viability, T/C [8] of 70.4% and a viability, T/C [9] of 42.6%. The viability, T/C [10] was 36.3%, the viability, T/C [11] was 26.2% and the viability, T/C [12] was 23%. The viability, T/C [13] was 84.8%, the viability, T/C [14] was 68.6% and the viability, T/C [15] was 42.5%. It also gave a viability, T/C [16] of 29.2%, a viability, T/C [17] of 26.8% and a viability, T/C [18] of 20.8%. It also gave a viability, T/C [19] of 87%, a viability, T/C [20] of 65.7% and a viability, T/C [21] of 45.8%. It also gave a viability, T/C [22] of 28.2%, a viability, T/C [23] of 23.1% and a viability, T/C [24] of 19.5%. It also gave a viability, T/C [25] of 86.5%, a viability, T/C [26] of 67.9% and a viability, T/C [27] of 38.7%. For the same compound, the viability, T/C [28] was 28.9%, the viability, T/C [29] was 24.4% and the viability, T/C [30] was 19.7%. The viability, T/C [31] was 76.9%, the viability, T/C [32] was 59.9% and the viability, T/C [33] was 39.3%. It also gave a viability, T/C [34] of 18.5%, a viability, T/C [35] of 23.2% and a viability, T/C [36] of 18.7%.
